# Assay results from PubChem BioAssay AID226 (DTP/NCI, 2004).
# Where “and” joins values, the source holds several entries; their conditions need not be identical. Equal values may be shown once. Inconclusive results and toxic doses are left out.
# Tested on: B6C3F1 mice, intracerebral ependymoblastoma, median survival T/C
# Assay: NCI In Vivo Anticancer Drug Screen. Data for tumor model Ependymoblastoma (intracerebral) in B6C3F1 mice
# Settings: endpoint: median survival time, higher = longer survival
# Protocol: The antitumor activity of compounds was measured in mice bearing transplantable tumors. Survival or tumor size were measured and the results are expressed as the measurement made in the treated group (T) divided by the measurement made in the vehicle treated control group (C). The tumor model used in this assay is Ependymoblastoma (intracerebral) in B6C3F1 mice
# [1] = dose: 50.0 mg/kg/injection, schedule: Q01DX005 (ip), vehicle: saline with Tween-80
# [2] = dose: 100.0 mg/kg/injection, schedule: Q01DX005 (ip), vehicle: saline with Tween-80
# [3] = dose: 200.0 mg/kg/injection, schedule: Q01DX005 (ip), vehicle: saline with Tween-80
# [4] = dose: 12.5 mg/kg/injection, schedule: Q01DX005 (ip), vehicle: saline with Tween-80
# [5] = dose: 50.0 mg/kg/injection, schedule: Q01DX005 (ip), vehicle: Klucel (hydroxypropylcellulose) (HPC)
# [6] = dose: 100.0 mg/kg/injection, schedule: Q01DX005 (ip), vehicle: Klucel (hydroxypropylcellulose) (HPC)
smiles,measurement,setting,value
CCC(C)Sc1nc(N)nc2c1ncn2C1OC(CO)C(O)C1O (centres undefined),T/C,"dose: 37.5 mg/kg/injection, schedule: Q01DX005 (ip), vehicle: Klucel (hydroxypropylcellulose) (HPC)",97 % of control and 119 % of control
same,T/C,"dose: 75.0 mg/kg/injection, schedule: Q01DX005 (ip), vehicle: Klucel (hydroxypropylcellulose) (HPC)",113 % of control and 116 % of control
same,T/C,"dose: 150.0 mg/kg/injection, schedule: Q01DX005 (ip), vehicle: Klucel (hydroxypropylcellulose) (HPC)",115 % of control
same,T/C,"dose: 300.0 mg/kg/injection, schedule: Q01DX005 (ip), vehicle: Klucel (hydroxypropylcellulose) (HPC)",95 % of control and 113 % of control
COc1cc2c(c3c1c(=O)c1ccccc1n3C)C=CC(C)(C)O2,T/C,"dose: 64.0 mg/kg/injection, schedule: Q01DX005 (ip), vehicle: Klucel (hydroxypropylcellulose) (HPC)",114 % of control
same,T/C,"dose: 128.0 mg/kg/injection, schedule: Q01DX005 (ip), vehicle: suspension in saline",108 % of control
same,T/C,"dose: 256.0 mg/kg/injection, schedule: Q01DX005 (ip), vehicle: suspension in saline",120 % of control
Cc1c2ccncc2c(C)c2c1[nH]c1ccccc12,T/C,"dose: 128.0 mg/kg/injection, schedule: Q01DX001 (ip), vehicle: Klucel (hydroxypropylcellulose) (HPC)",112 % of control
CN(N=O)C(=O)Nc1c[nH]c(=O)[nH]c1=O,T/C,"dose: 16.0 mg/kg/injection, schedule: Q01DX005 (ip), vehicle: saline with Tween-80",114 % of control
CCSc1ncnc2c1ncn2C1OC(CO)C(O)C1O (centres undefined),T/C,[1],100 % of control and 106 % of control and 122 % of control
same,T/C,[2],103 % of control and 106 % of control
same,T/C,[3],107 % of control and 109 % of control
CN1c2c(nc(N)[nH]c2=O)NCC1CCNc1ccc(C(=O)NC(CCC(=O)O)C(=O)O)cc1 (centres undefined),T/C,"dose: 50.0 mg/kg/injection, schedule: Q#ADX018 (ip), vehicle: saline",114 % of control
same,T/C,"dose: 100.0 mg/kg/injection, schedule: Q01DX009 (ip), vehicle: saline",111 % of control and 114 % of control
same,T/C,"dose: 100.0 mg/kg/injection, schedule: Q12HX018 (ip), vehicle: saline",122 % of control
same,T/C,"dose: 100.0 mg/kg/injection, schedule: Q#A X018 (ip), vehicle: saline",195 % of control
same,T/C,"dose: 100.0 mg/kg/injection, schedule: Q#ADX018 (ip), vehicle: saline",114 % of control
same,T/C,"dose: 200.0 mg/kg/injection, schedule: Q01DX009 (ip), vehicle: saline",105 % of control and 115 % of control
same,T/C,"dose: 200.0 mg/kg/injection, schedule: Q#A X018 (ip), vehicle: saline",216 % of control
same,T/C,"dose: 200.0 mg/kg/injection, schedule: Q#ADX018 (ip), vehicle: saline",119 % of control
same,T/C,"dose: 400.0 mg/kg/injection, schedule: Q01DX009 (ip), vehicle: saline",109 % of control
same,T/C,"dose: 400.0 mg/kg/injection, schedule: Q#A X018 (ip), vehicle: saline",190 % of control
same,T/C,"dose: 800.0 mg/kg/injection, schedule: Q01DX009 (ip), vehicle: saline",121 % of control and 122 % of control
same,T/C,"dose: 1600.0 mg/kg/injection, schedule: Q01DX009 (ip), vehicle: saline",120 % of control
CC(C)(N)C(=O)O,T/C,[4],103 % of control
same,T/C,"dose: 25.0 mg/kg/injection, schedule: Q01DX005 (ip), vehicle: saline with Tween-80",114 % of control
same,T/C,[1],114 % of control
same,T/C,[2],105 % of control
same,T/C,[3],97 % of control
same,T/C,"dose: 400.0 mg/kg/injection, schedule: Q01DX005 (ip), vehicle: saline with Tween-80",95 % of control
same,T/C,"dose: 800.0 mg/kg/injection, schedule: Q01DX005 (ip), vehicle: saline with Tween-80",98 % of control
same,T/C,"dose: 1600.0 mg/kg/injection, schedule: Q01DX005 (ip), vehicle: saline with Tween-80",116 % of control
C/C(=C\c1ccccc1)[N+](=O)[O-],T/C,"dose: 3.12 mg/kg/injection, schedule: Q01DX005 (ip), vehicle: Klucel (hydroxypropylcellulose) (HPC)",96 % of control
same,T/C,"dose: 6.25 mg/kg/injection, schedule: Q01DX005 (ip), vehicle: Klucel (hydroxypropylcellulose) (HPC)",100 % of control
same,T/C,"dose: 12.5 mg/kg/injection, schedule: Q01DX005 (ip), vehicle: Klucel (hydroxypropylcellulose) (HPC)",92 % of control
same,T/C,"dose: 25.0 mg/kg/injection, schedule: Q01DX005 (ip), vehicle: Klucel (hydroxypropylcellulose) (HPC)",92 % of control
same,T/C,[5],91 % of control
same,T/C,[6],91 % of control
O=P1(NCCCl)OCCCN1CCCl (centres undefined),T/C,"dose: 25.0 mg/kg/injection, schedule: Q01DX001 (ip), vehicle: water",101 % of control
same,T/C,"dose: 40.0 mg/kg/injection, schedule: Q01DX001 (ip), vehicle: saline",102 % of control
same,T/C,"dose: 50.0 mg/kg/injection, schedule: Q01DX001 (ip), vehicle: water",104 % of control and 105 % of control
same,T/C,"dose: 80.0 mg/kg/injection, schedule: Q01DX001 (ip), vehicle: saline",101 % of control
same,T/C,"dose: 100.0 mg/kg/injection, schedule: Q01DX001 (ip), vehicle: water",101 % of control and 113 % of control
same,T/C,"dose: 160.0 mg/kg/injection, schedule: Q01DX001 (ip), vehicle: saline",102 % of control
same,T/C,"dose: 200.0 mg/kg/injection, schedule: Q01DX001 (ip), vehicle: water",114 % of control and 124 % of control
same,T/C,"dose: 320.0 mg/kg/injection, schedule: Q01DX001 (ip), vehicle: saline",105 % of control
same,T/C,"dose: 400.0 mg/kg/injection, schedule: Q01DX001 (ip), vehicle: water",119 % of control
same,T/C,"dose: 640.0 mg/kg/injection, schedule: Q01DX001 (ip), vehicle: saline",118 % of control
COc1ccc2cc1Oc1ccc(cc1)C[C@H]1c3cc(c(OC)cc3CCN1C)Oc1c(OC)c(OC)cc3c1[C@H](C2)N(C)CC3,T/C,[5],100 % of control
same,T/C,[6],88 % of control
same,T/C,"dose: 200.0 mg/kg/injection, schedule: Q01DX005 (ip), vehicle: Klucel (hydroxypropylcellulose) (HPC)",108 % of control
same,T/C,"dose: 400.0 mg/kg/injection, schedule: Q01DX005 (ip), vehicle: Klucel (hydroxypropylcellulose) (HPC)",91 % of control
O=C1c2c(O)ccc(O)c2C(=O)c2c(NCCNCCO)ccc(NCCNCCO)c21,T/C,"dose: 0.25 mg/kg/injection, schedule: Q01DX005 (ip), vehicle: saline with Tween-80",103 % of control
same,T/C,"dose: 0.5 mg/kg/injection, schedule: Q01DX005 (ip), vehicle: saline with Tween-80",92 % of control and 98 % of control
same,T/C,"dose: 1.0 mg/kg/injection, schedule: Q01DX005 (ip), vehicle: saline with Tween-80",103 % of control and 104 % of control
same,T/C,"dose: 2.0 mg/kg/injection, schedule: Q01DX005 (ip), vehicle: saline with Tween-80",91 % of control and 103 % of control
CN(N=O)C(=O)N[C@@H](C=O)[C@@H](O)[C@H](O)[C@H](O)CO,T/C,"dose: 6.25 mg/kg/injection, schedule: Q01DX009 (ip), vehicle: citric acid",96 % of control
same,T/C,"dose: 12.5 mg/kg/injection, schedule: Q01DX005 (ip), vehicle: saline",103 % of control
same,T/C,"dose: 12.5 mg/kg/injection, schedule: Q01DX009 (ip), vehicle: citric acid",108 % of control
same,T/C,"dose: 25.0 mg/kg/injection, schedule: Q01DX005 (ip), vehicle: saline",122 % of control
same,T/C,"dose: 25.0 mg/kg/injection, schedule: Q01DX009 (ip), vehicle: citric acid",117 % of control
same,T/C,"dose: 64.0 mg/kg/injection, schedule: Q01DX001 (ip), vehicle: other",108 % of control
same,T/C,"dose: 75.0 mg/kg/injection, schedule: Q01DX001 (ip), vehicle: saline",121 % of control
same,T/C,"dose: 100.0 mg/kg/injection, schedule: Q01DX005 (ip), vehicle: saline",113 % of control
same,T/C,"dose: 128.0 mg/kg/injection, schedule: Q01DX001 (ip), vehicle: other",105 % of control
same,T/C,"dose: 200.0 mg/kg/injection, schedule: Q01DX005 (ip), vehicle: saline",113 % of control
same,T/C,"dose: 256.0 mg/kg/injection, schedule: Q01DX001 (ip), vehicle: other",101 % of control
same,T/C,"dose: 400.0 mg/kg/injection, schedule: Q01DX005 (ip), vehicle: saline",103 % of control
same,T/C,"dose: 512.0 mg/kg/injection, schedule: Q01DX001 (ip), vehicle: other",108 % of control
COc1ccc2c(c1OC(C)=O)-c1cc(O)cc3c1C(C2)N(C(=O)CN(CCCl)CCCl)CC3 (centres undefined),T/C,"dose: 3.12 mg/kg/injection, schedule: Q01DX005 (ip), vehicle: saline with Tween-80",96 % of control
same,T/C,"dose: 6.25 mg/kg/injection, schedule: Q01DX005 (ip), vehicle: saline with Tween-80",102 % of control
same,T/C,[4],105 % of control
O=[N+]([O-])O.[Ga],T/C,"dose: 32.0 mg/kg/injection, schedule: Q01DX005 (ip), vehicle: saline",107 % of control
same,T/C,"dose: 64.0 mg/kg/injection, schedule: Q01DX005 (ip), vehicle: saline",100 % of control
same,T/C,"dose: 128.0 mg/kg/injection, schedule: Q01DX005 (ip), vehicle: saline",105 % of control
NCCOCC(N)C(=O)O (centres undefined),T/C,"dose: 62.5 mg/kg/injection, schedule: Q01DX005 (ip), vehicle: saline",93 % of control
same,T/C,"dose: 125.0 mg/kg/injection, schedule: Q01DX005 (ip), vehicle: saline",95 % of control
same,T/C,"dose: 250.0 mg/kg/injection, schedule: Q01DX005 (ip), vehicle: saline",98 % of control
same,T/C,"dose: 500.0 mg/kg/injection, schedule: Q01DX005 (ip), vehicle: saline",103 % of control
